Measurements reported in patent US9932346B2, “Pyrrolopyrimidines for use in influenza virus infection” (Janssen Sciences Ireland UC, priority 2014, dated 2018).

Key:
[1] = test system: influenza virus A/Taiwan/1/86 (H1N1); assay: organism not typed; type: cell-based; conditions: MDCK cells infected with influenza A/Taiwan/1/86 (H1N1), three days post-virus exposure, CPE by ATP levels
in vitro = conditions: dog
MDCK cells = conditions: dog, 3 days

Row | Compound | IC50 ([1]; MDCK, 72 h) [nM] | CC50 at 3 days (in vitro) [nM] | IC50 [1] [nM] | CC50 (MDCK cells) [nM]
1 | O=C(N[C@H]1CCC[C@@H](Nc2nc(-c3c[nH]c4ncncc34)ncc2F)C1)C1CCCCO1 (mixture of isomers) [Compound 38] | 380 | > 25000 | – | –
2 | O=C(O)[C@H]1C2CCC(CC2)[C@@H]1Nc1nc(-c2c[nH]c3ncncc23)ncc1F (mixture of isomers) [Compound 54] | 460 | > 25000 | – | –
3 | O=C(N[C@H]1CCC[C@@H](Nc2nc(-c3c[nH]c4ncncc34)ncc2F)C1)N1CCCC1 (racemic) [Compound 7] | 5 | > 25000 | – | –
4 | O=C(N[C@H]1CCC[C@@H](Nc2nc(-c3c[nH]c4ncncc34)ncc2F)C1)c1ccn2nccc2n1 (racemic) [Compound 29] | 10 | > 25000 | – | –
5 | Cc1cc(C(=O)N[C@H]2CCC[C@@H](Nc3nc(-c4c[nH]c5ncncc45)ncc3F)C2)nn1C (racemic) [Compound 30] | 21 | > 25000 | – | –
6 | O=C(Nc1ccccc1)N[C@H]1CCC[C@@H](Nc2nc(-c3c[nH]c4ncncc34)ncc2F)C1 (racemic) [Compound 31] | 21 | > 25000 | – | –
7 | Cc1cc(C(=O)N[C@H]2CCC[C@@H](Nc3nc(-c4c[nH]c5ncncc45)ncc3F)C2)on1 (racemic) [Compound 32] | 35 | > 25000 | – | –
8 | O=C(N[C@H]1CCC[C@@H](Nc2nc(-c3c[nH]c4ncncc34)ncc2F)C1)c1ccncc1 (racemic) [Compound 33] | 42 | > 100000 | – | –
9 | Cc1cc(C(=O)N[C@@H]2CCC[C@@H](Nc3nc(-c4c[nH]c5ncncc45)ncc3F)C2)no1 (racemic) [Compound 34] | 40 | > 25000 | – | –
10 | O=C(N[C@H]1CCC[C@@H](Nc2nc(-c3c[nH]c4ncncc34)ncc2F)C1)c1ccccn1 (racemic) [Compound 35] | 2 | > 25000 | – | –
11 | Cc1nc(C(=O)N[C@H]2CCC[C@@H](Nc3nc(-c4c[nH]c5ncncc45)ncc3F)C2)c(C)o1 (racemic) [Compound 36] | 40 | > 25000 | – | –
12 | O=C(N[C@H]1CCC[C@@H](Nc2nc(-c3c[nH]c4ncncc34)ncc2F)C1)C1CCC1 (racemic) [Compound 37] | 205 | > 25000 | – | –
13 | O=C(N[C@H]1CCC[C@@H](Nc2nc(-c3c[nH]c4ncncc34)ncc2F)C1)C1CC1 (racemic) [Compound 39] | 114 | > 25000 | – | –
14 | Cc1noc(C)c1C(=O)N[C@H]1CCC[C@@H](Nc2nc(-c3c[nH]c4ncncc34)ncc2F)C1 (racemic) [Compound 40] | 190 | > 25000 | – | –
15 | CC(C)NC(=O)N[C@H]1CCC[C@@H](Nc2nc(-c3c[nH]c4ncncc34)ncc2F)C1 (racemic) [Compound 41] | 319 | > 25000 | – | –
16 | Cn1cccc1C(=O)N[C@H]1CCC[C@@H](Nc2nc(-c3c[nH]c4ncncc34)ncc2F)C1 (racemic) [Compound 45] | 4 | > 25000 | – | –
17 | O=C(N[C@H]1CCC[C@@H](Nc2nc(-c3c[nH]c4ncncc34)ncc2F)C1)c1ccno1 (racemic) [Compound 47] | 11 | > 25000 | – | –
18 | O=C(N[C@H]1CCC[C@@H](Nc2nc(-c3c[nH]c4ncncc34)ncc2F)C1)c1cccnc1 (racemic) [Compound 49] | 46 | > 25000 | – | –
19 | CC(C)(C)[C@@H](CO)Nc1nc(-c2c[nH]c3ncncc23)ncc1F (racemic) [Compound 55] | 550 | > 25000 | – | –
20 | COC(=O)N[C@H]1CCC[C@@H](Nc2nc(-c3c[nH]c4ncncc34)ncc2F)C1 (racemic) [Compound 56] | 600 | > 25000 | – | –
21 | O[C@H]1CCCC[C@@H]1Nc1nc(-c2c[nH]c3ncncc23)ncc1F (racemic) [Compound 58] | 630 | > 100000 | – | –
22 | CCC(=O)N[C@H]1CCC[C@@H](Nc2nc(-c3c[nH]c4ncncc34)ncc2F)C1 (racemic) [Compound 62] | 700 | > 25000 | – | –
23 | O=C(O)c1ccccc1C(=O)N[C@H]1CCC[C@@H](Nc2nc(-c3c[nH]c4ncncc34)ncc2F)C1 (racemic) [Compound 63] | 720 | > 25000 | – | –
24 | CC(C)(C)C(=O)N[C@H]1CCC[C@@H](Nc2nc(-c3c[nH]c4ncncc34)ncc2F)C1 (racemic) [Compound 64] | 760 | > 25000 | – | –
25 | COCC(=O)N[C@H]1CCC[C@@H](Nc2nc(-c3c[nH]c4ncncc34)ncc2F)C1 (racemic) [Compound 66] | 820 | > 25000 | – | –
26 | CC(C)C(=O)N[C@H]1CCC[C@@H](Nc2nc(-c3c[nH]c4ncncc34)ncc2F)C1 (racemic) [Compound 73] | 930 | > 25000 | – | –

Row | Compound | IC50 ([1]; MDCK, 72 h) [nM] | CC50 at 3 days (in vitro) [nM] | IC50 [1] [nM] | CC50 (MDCK cells) [nM]
27 | N#Cc1cc(F)c(N[C@@H]2CCC[C@H](NC(=O)N3CCCC3)C2)nc1-c1c[nH]c2ncncc12 (stereo in doubt) [Compound 9, (+/−)-N-((cis)-3-((5-cyano-3-fluoro-6-(7H-pyrrolo[2,3-d]pyrimidin-5-yl)pyridin-2-yl)amino)cyclohexyl)pyrrolidine-1-carboxamide] | 9 | 8740 | – | –
28 | N#Cc1cc(F)c(N[C@H]2CCC[C@@H](NC(=O)N3CCCC3)C2)nc1-c1c[nH]c2ncncc12 (stereo in doubt) [Compound 93] | 6 | > 25000 | – | –
29 | Cn1cnc(C(=O)N[C@@H]2CCC[C@@H](Nc3nc(-c4c[nH]c5ncncc45)c(C#N)cc3F)C2)c1 [Compound 12] | 30 | > 25000 | – | –
30 | Cn1cnc(C(=O)N[C@H]2CCC[C@@H](Nc3nc(-c4c[nH]c5ncncc45)ncc3F)C2)c1 [Compound 14] | 47 | > 25000 | – | –
31 | Cn1cnc(C(=O)N[C@H]2CCC[C@@H](Nc3nc(-c4c[nH]c5ncncc45)c(F)cc3F)C2)c1 [Compound 16] | 36 | > 25000 | – | –
32 | CC(C)(C)C(CC(=O)O)Nc1nc(-c2c[nH]c3ncncc23)c(C(F)(F)F)cc1F (stereo not drawn) [Compound 18] | 44 | 2480 | – | –
33 | CC(C)(C)C(CC(=O)O)Nc1nc(-c2c[nH]c3ncncc23)c(C#N)cc1F (stereo not drawn) [Compound 21] | 106 | 13400 | – | –
34 | O=C(N[C@H]1CCC[C@@H](Nc2nc(-c3c[nH]c4ncncc34)c(F)cc2F)C1)N1CCCC1 [Compound 23] | 33 | > 25000 | – | –
35 | COC(=O)[C@H]1C2CCC(CC2)[C@@H]1Nc1nc(-c2c[nH]c3ncncc23)ncc1F [Compound 24] | 325 | > 25000 | – | –
36 | O=C(N[C@H]1CCC[C@@H](Nc2nc(C3CNc4ncncc43)ncc2F)C1)OCc1ccccc1 (stereo partly drawn) [Compound 28] | 351 | > 25000 | – | –
37 | O=C(O)[C@H]1C2CCC(CC2)[C@@H]1Nc1nc(-c2c[nH]c3ncncc23)c(C(F)(F)F)cc1F [Compound 44] | 3 | 9400 | – | –
38 | O=C(N[C@H]1CCC[C@@H](Nc2nc(-c3c[nH]c4ncncc34)cnc2F)C1)N1CCCC1 [Compound 46] | 5 | > 25000 | – | –
39 | Cn1cnc(C(=O)N[C@H]2CCC[C@@H](Nc3nc(-c4c[nH]c5ncncc45)ncc3F)C2)c1 [Compound 48] | – | – | 35 | > 25000
40 | CC1(C(CC(=O)O)Nc2nc(-c3c[nH]c4ncncc34)ncc2F)CCCC1 (stereo not drawn) [Compound 53] | 650 | > 25000 | – | –
41 | Fc1cnc(-c2c[nH]c3ncncc23)nc1NC1[C@H]2CC3C[C@H](C2)C[C@H]1C3 (stereo partly drawn) [Compound 57] | 660 | 5200 | – | –
42 | CC(C)Nc1nc(-c2c[nH]c3ncncc23)ncc1F [Compound 61] | 630 | > 25000 | – | –
43 | Fc1cnc(-c2c[nH]c3ncncc23)nc1NC1CCCCC1 [Compound 65] | 810 | 11600 | – | –
44 | COC(=O)CC(Nc1nc(-c2c[nH]c3ncncc23)ncc1F)C(C)(C)C (stereo not drawn) [Compound 69] | 830 | > 25000 | – | –
45 | CC[C@@]1(C(=O)O)CCCC[C@H]1Nc1nc(-c2c[nH]c3ncncc23)ncc1F [Compound 72] | 860 | 10300 | – | –
46 | Nc1ncnc2[nH]cc(-c3ncc(F)c(N[C@@H]4CCC[C@H](C(=O)N5CCCC5)C4)n3)c12 [Compound 79] | 150 | > 25000 | – | –
47 | Cc1[nH]c2ncncc2c1-c1ncc(F)c(N[C@@H]2CCC[C@H](NC(=O)N3CCCC3)C2)n1 [Compound 83] | 710 | > 25000 | – | –
48 | Cc1ncnc2[nH]cc(-c3ncc(F)c(N[C@@H]4CCC[C@H](NC(=O)N5CCCC5)C4)n3)c12 [Compound 87] | 470 | > 25000 | – | –
49 | Cc1ncc2c(-c3ncc(F)c(N[C@@H]4CCC[C@H](NC(=O)N5CCCC5)C4)n3)c[nH]c2n1 [Compound 92] | 180 | > 25000 | – | –
50 | N#Cc1cc(F)c(N[C@@H]2CCC[C@H](NC(=O)c3ccccn3)C2)nc1-c1c[nH]c2ncncc12 [Compound 98] | 2 | > 25000 | – | –
51 | N#Cc1cc(F)c(N[C@H]2C3CCC(CC3)[C@@H]2C(=O)O)nc1-c1c[nH]c2ncncc12 [Compound 101] | 36 | 10500 | – | –
